Laboratory results as given in ChEMBL document CHEMBL4219173, “2,4-Diamino-8-quinazoline carboxamides as novel, potent inhibitors of the NAD hydrolyzing enzyme CD38: Exploration of the 2-position structure-activity relationships” (Bioorg Med Chem, 2018).
Values after ≈ are worked out from the molar mass of the structure shown.

How the values were obtained:
[1] = Lipophilicity, log D of the compound by chromatographic method; type: physicochemical
[2] = target: T1, ADP-ribosyl cyclase/cyclic ADP-ribose hydrolase 1 (Homo sapiens, UniProt P28907); test: Inhibition of recombinant human CD38 extracellular domain expressed in Pichia pastoris using NAD as substrate pretreated for 30 mins followed by substrate addition measured after 15 to 45 mins
T1 sequence (P28907 whole entry): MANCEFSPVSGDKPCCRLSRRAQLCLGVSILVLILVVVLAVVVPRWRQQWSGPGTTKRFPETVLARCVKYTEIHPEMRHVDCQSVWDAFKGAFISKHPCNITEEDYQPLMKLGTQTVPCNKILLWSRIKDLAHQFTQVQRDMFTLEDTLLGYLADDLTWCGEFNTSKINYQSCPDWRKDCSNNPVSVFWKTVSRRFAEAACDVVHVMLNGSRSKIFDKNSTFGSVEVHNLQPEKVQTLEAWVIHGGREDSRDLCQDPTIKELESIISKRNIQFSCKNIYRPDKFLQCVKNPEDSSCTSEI

[3] = target: Voltage-gated inwardly rectifying potassium channel KCNH2 (Homo sapiens, UniProt Q12809); test: Inhibition of human ERG
Sequence of Voltage-gated inwardly rectifying potassium channel KCNH2 (Q12809 whole entry): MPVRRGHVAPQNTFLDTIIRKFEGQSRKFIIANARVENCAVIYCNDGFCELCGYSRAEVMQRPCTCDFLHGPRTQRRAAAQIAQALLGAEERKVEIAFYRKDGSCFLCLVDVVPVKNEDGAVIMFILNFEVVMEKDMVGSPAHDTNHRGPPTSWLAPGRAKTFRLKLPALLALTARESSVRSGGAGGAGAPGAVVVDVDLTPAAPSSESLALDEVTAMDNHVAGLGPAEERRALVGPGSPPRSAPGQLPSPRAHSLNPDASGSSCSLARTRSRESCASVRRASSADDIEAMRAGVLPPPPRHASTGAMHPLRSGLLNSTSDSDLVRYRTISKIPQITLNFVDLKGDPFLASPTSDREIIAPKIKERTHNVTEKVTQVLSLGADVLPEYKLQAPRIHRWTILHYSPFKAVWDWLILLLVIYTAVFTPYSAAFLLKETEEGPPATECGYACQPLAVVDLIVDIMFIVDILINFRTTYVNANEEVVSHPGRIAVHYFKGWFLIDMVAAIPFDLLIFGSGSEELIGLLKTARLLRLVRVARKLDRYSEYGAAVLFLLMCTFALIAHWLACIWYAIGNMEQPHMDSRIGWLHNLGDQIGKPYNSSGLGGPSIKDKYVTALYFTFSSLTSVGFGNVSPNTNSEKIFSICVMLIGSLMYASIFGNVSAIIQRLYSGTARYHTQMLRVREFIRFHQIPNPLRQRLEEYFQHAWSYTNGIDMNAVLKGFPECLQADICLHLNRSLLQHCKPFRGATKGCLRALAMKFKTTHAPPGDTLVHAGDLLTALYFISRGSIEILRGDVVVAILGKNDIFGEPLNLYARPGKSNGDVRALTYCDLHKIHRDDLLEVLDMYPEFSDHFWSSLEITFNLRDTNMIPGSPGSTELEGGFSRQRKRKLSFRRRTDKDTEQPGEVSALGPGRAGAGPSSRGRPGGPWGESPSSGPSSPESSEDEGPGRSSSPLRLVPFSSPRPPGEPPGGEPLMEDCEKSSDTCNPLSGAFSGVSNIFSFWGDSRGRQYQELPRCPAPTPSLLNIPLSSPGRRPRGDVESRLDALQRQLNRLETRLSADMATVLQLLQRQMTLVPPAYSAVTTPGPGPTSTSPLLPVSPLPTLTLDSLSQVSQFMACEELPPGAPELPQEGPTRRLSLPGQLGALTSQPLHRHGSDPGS

[4] = target: Cytochrome P450 3A4 (Homo sapiens, UniProt P08684); test: Inhibition of CYP3A4 (unknown origin); type: ADME
Sequence of Cytochrome P450 3A4 (P08684 whole entry): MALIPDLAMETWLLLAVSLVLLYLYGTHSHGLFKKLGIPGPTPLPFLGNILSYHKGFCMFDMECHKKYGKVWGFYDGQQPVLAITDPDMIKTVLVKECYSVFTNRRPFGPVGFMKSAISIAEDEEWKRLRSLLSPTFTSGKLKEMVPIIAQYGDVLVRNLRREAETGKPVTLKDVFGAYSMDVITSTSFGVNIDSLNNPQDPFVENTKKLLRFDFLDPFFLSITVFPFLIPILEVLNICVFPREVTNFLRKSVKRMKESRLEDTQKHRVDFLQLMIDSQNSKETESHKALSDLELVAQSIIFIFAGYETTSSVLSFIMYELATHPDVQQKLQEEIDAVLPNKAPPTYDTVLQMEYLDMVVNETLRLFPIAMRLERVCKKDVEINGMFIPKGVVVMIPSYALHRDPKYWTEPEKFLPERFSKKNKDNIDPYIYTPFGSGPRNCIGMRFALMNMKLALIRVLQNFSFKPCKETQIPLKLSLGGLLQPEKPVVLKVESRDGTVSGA

[5] = Aqueous solubility of the compound in FaSSIF; type: physicochemical
[6] = Permeability of the compound by PAMPA; type: ADME; conditions: read-out: permeability
[7] = Clearance in mouse at 2 mg/kg, iv; type: ADME, organism-based; conditions: in vivo
[8] = tested on: Mus musculus; test: Dose normalized AUC in mouse at 30 mg/kg, po; type: ADME, organism-based; conditions: in vivo
[9] = Volume of distribution at steady state in mouse at 2 mg/kg, iv; type: ADME, organism-based; conditions: in vivo, read-out: Vdss
[10] = Half life in mouse at 2 mg/kg, iv; type: ADME, organism-based; conditions: in vivo
[11] = Oral bioavailability in mouse at 30 mg/kg; type: ADME, organism-based; conditions: in vivo

Row | IC50 [2] | Compound | other results
1 | – | Cc1cc(NCc2c(F)cccc2C(F)(F)F)c2cccc(C(N)=O)c2n1 | chromatographic logD [1]: 5.1
2 | 20 nM | CC1(C)c2[nH]nc(N)c2CN1C1=NC(NCc2c(F)cccc2C(F)(F)F)c2cccc(C(N)=O)c2N1 (configuration not stated) | –
3 | 17 nM | NC(=O)c1cccc2c1NC(N1Cc3c(N)n[nH]c3C13CCCC3)=NC2NCc1c(F)cccc1C(F)(F)F (configuration not stated) | –
4 | 170 nM | Cc1n[nH]c2c1CN(C1=NC(NCc3c(F)cccc3C(F)(F)F)c3cccc(C(N)=O)c3N1)[C@H]2C (some centres not stated) | –
5 | 310 nM | C[C@H]1c2[nH]nc(N)c2CN1C1=NC(NCc2c(F)cccc2C(F)(F)F)c2cccc(C(N)=O)c2N1 (some centres not stated) | –
6 | 110 nM | NC(=O)c1cccc2c1NC(N1Cc3[nH]nc(N)c3C1)=NC2NCc1c(F)cccc1C(F)(F)F (configuration not stated) | –
7 | 7.8 nM | NC(=O)c1cccc2c1NC(N1Cc3c(N)n[nH]c3C13CCC3)=NC2NCc1c(F)cccc1C(F)(F)F (configuration not stated) | –
8 | 450 nM | NC(=O)c1cccc2c(NCc3c(F)cccc3C(F)(F)F)nc(NCc3cn[nH]c3)nc12 | –
9 | 4100 nM | NC(=O)c1cccc2c1NC(N1Cc3[nH]nc(C(F)(F)F)c3C1)=NC2NCc1c(F)cccc1C(F)(F)F (configuration not stated) | –
10 | 21 nM | Cc1n[nH]c2c1CN(C1=NC(NCc3c(F)cccc3C(F)(F)F)c3cccc(C(N)=O)c3N1)[C@@H]2C (some centres not stated) | –
11 | 1900 nM | CN(Cc1ccn[nH]1)c1nc(NCc2c(F)cccc2C(F)(F)F)c2cccc(C(N)=O)c2n1 | –
12 | 330 nM | C[C@@H]1c2cn[nH]c2CN1C1=NC(NCc2c(F)cccc2C(F)(F)F)c2cccc(C(N)=O)c2N1 (some centres not stated) | –
13 | 19000 nM | NC(=O)c1cccc2c1NC(N1CCCc3cn[nH]c3C1)=NC2NCc1c(F)cccc1C(F)(F)F (configuration not stated) | –
14 | 370 nM | CC[C@H]1c2[nH]ncc2CN1C1=NC(NCc2c(F)cccc2C(F)(F)F)c2cccc(C(N)=O)c2N1 (some centres not stated) | –
15 | 42 nM | Cc1n[nH]c2c1CN(C1=NC(NCc3c(F)cccc3C(F)(F)F)c3cccc(C(N)=O)c3N1)C2 (configuration not stated) | IC50 [3]: 12600 nM; IC50 [4]: 631 nM
16 | 45 nM | C[C@@H]1c2[nH]nc(N)c2CN1C1=NC(NCc2c(F)cccc2C(F)(F)F)c2cccc(C(N)=O)c2N1 (some centres not stated) | –
17 | 630 nM | NC(=O)c1cccc2c(NCc3c(F)cccc3C(F)(F)F)nc(N3CCc4[nH]ncc4C3)nc12 | –
18 | 140 nM | CC(=O)c1n[nH]c2c1CN(C1=NC(NCc3c(F)cccc3C(F)(F)F)c3cccc(C(N)=O)c3N1)C2 (configuration not stated) | –
19 | 71 nM | CC[C@@H]1c2[nH]ncc2CN1C1=NC(NCc2c(F)cccc2C(F)(F)F)c2cccc(C(N)=O)c2N1 (some centres not stated) | –
20 | 8000 nM | NC(=O)c1cccc2c(NCc3c(F)cccc3C(F)(F)F)nc(NCc3nnn[nH]3)nc12 | –
21 | 5500 nM | NC(=O)c1cccc2c(NCc3c(F)cccc3C(F)(F)F)nc(NCc3ccon3)nc12 | –

Row | IC50 [2] | Compound | other results
22 | 160 nM | Cn1cc2c(n1)CN(C1Nc3c(C(N)=O)cccc3C(NCc3c(F)cccc3C(F)(F)F)N1)C2 (configuration not stated) | –
23 | 1600 nM | NC(=O)c1cccc2c1NC(N1Cc3[nH][nH]c(=O)c3C1)=NC2NCc1c(F)cccc1C(F)(F)F (configuration not stated) | –
24 | 110 nM | C[C@H](O)c1n[nH]c2c1CN(C1=NC(NCc3c(F)cccc3C(F)(F)F)c3cccc(C(N)=O)c3N1)C2 (some centres not stated) | solubility [5]: 12 µg/mL (≈ 23.2 µM)
25 | 3400 nM | NC(=O)c1cccc2c(NCc3c(F)cccc3C(F)(F)F)nc(NCc3cnco3)nc12 | –
26 | 410 nM | C[C@H]1c2n[nH]cc2CN1C1=NC(NCc2c(F)cccc2C(F)(F)F)c2cccc(C(N)=O)c2N1 (some centres not stated) | –
27 | 83 nM | CCc1n[nH]c2c1CN(C1=NC(NCc3c(F)cccc3C(F)(F)F)c3cccc(C(N)=O)c3N1)C2 (configuration not stated) | –
28 | 2300 nM | NC(=O)c1cccc2c(NCc3c(F)cccc3C(F)(F)F)nc(NCc3ccn[nH]3)nc12 | –
29 | 72 nM | NC(=O)c1cccc2c(NCc3c(F)cccc3C(F)(F)F)cc(NCc3cn[nH]c3)nc12 | –
30 | 92 nM | NC(=O)c1cccc2c(NCc3c(F)cccc3C(F)(F)F)nc(N3Cc4cn[nH]c4C3)nc12 | solubility [5]: 6 µg/mL (≈ 12.7 µM)
31 | 1600 nM | NC(=O)c1cccc2c(NCc3c(F)cccc3C(F)(F)F)nc(NCc3c[nH]cn3)nc12 | –
32 | 4200 nM | NC(=O)c1c(C(F)(F)F)ccc2c(NCc3c(F)cccc3C(F)(F)F)nc(NCc3ncco3)nc12 | –
33 | 82 nM | Cn1ncc2c1CN(C1=NC(NCc3c(F)cccc3C(F)(F)F)c3cccc(C(N)=O)c3N1)C2 (configuration not stated) | solubility [5]: 2 µg/mL (≈ 4.1 µM)
34 | 1900 nM | NC(=O)c1cccc2c(NCc3c(F)cccc3C(F)(F)F)nc(N3CCc4cn[nH]c4C3)nc12 | –
35 | 51 nM | C[C@@H]1c2n[nH]cc2CN1C1=NC(NCc2c(F)cccc2C(F)(F)F)c2cccc(C(N)=O)c2N1 (some centres not stated) | Papp [6]: 14.7 ×10⁻⁶ cm/s; clearance [7]: 37 mL/min/kg; IC50 [3]: 3160 nM; AUC/dose [8]: 327 ng·h/mL/(mg/kg); solubility [5]: 34 µg/mL (≈ 69.7 µM); Vd [9]: 2.7 L/kg; half-life [10]: 1.4 h; bioavailability [11]: 69%; IC50 [4]: 158 nM
36 | 4300 nM | NC(=O)c1cccc2c(NCc3c(F)cccc3C(F)(F)F)nc(NCc3nc[nH]n3)nc12 | –
37 | 6800 nM | NC(=O)c1cccc2c(NCc3c(F)cccc3C(F)(F)F)nc(NCc3ncc[nH]3)nc12 | –
38 | 230 nM | C[C@@H](O)c1n[nH]c2c1CN(C1=NC(NCc3c(F)cccc3C(F)(F)F)c3cccc(C(N)=O)c3N1)C2 (some centres not stated) | solubility [5]: 11 µg/mL (≈ 21.3 µM)
39 | 620 nM | Cc1n[nH]cc1CNc1nc(NCc2c(F)cccc2C(F)(F)F)c2cccc(C(N)=O)c2n1 | –
40 | 2500 nM | C[C@H]1c2cn[nH]c2CN1C1=NC(NCc2c(F)cccc2C(F)(F)F)c2cccc(C(N)=O)c2N1 (some centres not stated) | –
41 | 4 nM | NC(=O)c1cccc2c1NC(N1Cc3c(N)n[nH]c3C13CC3)=NC2NCc1c(F)cccc1C(F)(F)F (configuration not stated) | chromatographic logD [1]: 3.9
